Data from ChEMBL document CHEMBL5126543, “Tandem construction of biological relevant aliphatic 5-membered N-heterocycles” (Eur J Med Chem, 2022).
≈ marks a conversion by molar mass, not a printed value. *1 amine or outer side, *2 acyl side, *3 side chain or, on linkers, in order; H or OH if unused. Where a SMILES comes first, the peptide text is derived from it. [ ]: non-standard residue; d: D form. X1 = CS[C@H]1C[C@@H](C(=O)[*:2])N([*:1])C1

Legend:
[1] = Cytotoxicity against human MC3T3-E1 cells assessed as decrease in cell viability measured after 36 hrs by WST-1 assay; type: toxicity, cell-based; conditions: mouse
[2] = Selectivity index, Ratio of IC50 for human MC3T3-E1 cells to IC50 of human PANC-1 cells
MDA-MB-231 = assay: Antitumor activity against human MDA-MB-231 cells assessed as decrease in cell viability measured after 36 hrs by WST-1 assay; type: functional, cell-based; conditions: MDA-MB-231, 36 h
PANC-1 = assay: Antitumor activity against human PANC-1 cells assessed as decrease in cell viability measured after 36 hrs by WST-1 assay; type: functional, cell-based; conditions: PANC-1, 36 h
[3] = Selectivity index, Ratio of IC50 for human MC3T3-E1 cells to IC50 of human MDA-MB-231 cells; type: toxicity; conditions: MC3T3-E1 cells versus MDA-MB-231 cells, read-out: Ratio IC50
Nonstructural protein 5A [4] = biological target: T1, Nonstructural protein 5A (Hepatitis C virus, UniProt Q5L478); assay: Inhibition of HCV genotype 5a NS5A; parameters: species or system Hepacivirus hominis
T1 sequence (Q5L478 whole entry): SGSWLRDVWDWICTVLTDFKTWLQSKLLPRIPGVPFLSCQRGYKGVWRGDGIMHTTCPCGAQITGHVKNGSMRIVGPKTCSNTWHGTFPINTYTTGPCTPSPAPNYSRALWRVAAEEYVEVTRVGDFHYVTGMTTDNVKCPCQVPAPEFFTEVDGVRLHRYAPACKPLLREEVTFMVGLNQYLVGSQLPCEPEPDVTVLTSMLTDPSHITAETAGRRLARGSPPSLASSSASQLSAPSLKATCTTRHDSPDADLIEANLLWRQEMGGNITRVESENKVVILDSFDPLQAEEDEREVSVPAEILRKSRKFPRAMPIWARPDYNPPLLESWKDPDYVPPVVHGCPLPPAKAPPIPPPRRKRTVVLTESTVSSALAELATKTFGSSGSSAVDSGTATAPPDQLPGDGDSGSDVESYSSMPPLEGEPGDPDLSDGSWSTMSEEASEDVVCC

Nonstructural protein 5A [5] = biological target: T1, Nonstructural protein 5A; assay: Inhibition of HCV genotype 6a NS5A; parameters: species or system Hepacivirus hominis
Nonstructural protein 5A [6] = biological target: T1, Nonstructural protein 5A; assay: Inhibition of HCV genotype 3a NS5A; parameters: species or system Hepacivirus hominis
Nonstructural protein 5A [7] = biological target: T1, Nonstructural protein 5A; assay: Inhibition of HCV genotype 4a NS5A; parameters: species or system Hepacivirus hominis
Nonstructural protein 5A [8] = biological target: T1, Nonstructural protein 5A; assay: Inhibition of HCV genotype 1b NS5A; parameters: species or system Hepacivirus hominis
Nonstructural protein 5A [9] = biological target: T1, Nonstructural protein 5A; assay: Inhibition of HCV genotype 2a NS5A; parameters: species or system Hepacivirus hominis
Nonstructural protein 5A [10] = biological target: T1, Nonstructural protein 5A; assay: Inhibition of HCV genotype 1a NS5A; parameters: species or system Hepacivirus hominis
Candida albicans = assay: Antimicrobial activity against Candida albicans ATCC 24433 incubated for 18 to 20 hrs; type: functional; conditions: time 18-20 hrs
Pseudomonas aeruginosa = assay: Antimicrobial activity against Pseudomonas aeruginosa ATCC 27853 incubated for 18 to 20 hrs; type: functional; conditions: time 18-20 hrs
[11] = system: Staphylococcus epidermidis; assay: Antimicrobial activity against Staphylococcus epidermidis ATCC 12228 incubated for 18 to 20 hrs; type: functional; conditions: time 18-20 hrs
Escherichia coli = assay: Antimicrobial activity against Escherichia coli ATCC 25922 incubated for 18 to 20 hrs; type: functional; conditions: time 18-20 hrs
Priestia megaterium = assay: Antimicrobial activity against Bacillus megaterium Bm11 incubated for 18 to 20 hrs; type: functional; conditions: time 18-20 hrs

| Compound | IC50 at 36 h [1] [nM] | Ratio IC50 [2] | IC50 (MDA-MB-231) [nM] | IC50 (PANC-1) [nM] | selectivity ratio [3] | MIC (Candida albicans) [µM] | MIC (Pseudomonas aeruginosa) [µM] | MIC [11] [µM] | MIC (Escherichia coli) [µM] | MIC (Priestia megaterium) [µM] | other results |
| --- | --- | --- | --- | --- | --- | --- | --- | --- | --- | --- | --- |
| CCCCCCCCC#CC(c1ccc(C(=O)OC)cc1)N1CCCC1 (configuration not stated) | 558000 | 41.17 | 291000 | 13600 | 1.91 | – | – | – | – | – | – |
| CCCCCCCCC#CC(c1ccccc1)N1CCCC1 (configuration not stated) | 250000 | 11.6 | 74000 | 21600 | 3.38 | – | – | – | – | – | – |
| COC(=O)N[C@H](C(=O)N1CCC[C@H]1c1ncc(-c2ccc3c(c2)CC2c4c(F)cc(-c5cnc([C@@H]6CCCN6C(=O)[C@@H](NC(=O)OC)C(C)C)[nH]5)cc4O[C@@H](c4cnc(C5CC5)s4)N32)[nH]1)C(C)C (some centres not stated) | – | – | – | – | – | – | – | – | – | – | EC50 (Nonstructural protein 5A [4]): 0.0018 nM; EC50 (Nonstructural protein 5A [5]): 0.001 nM; EC50 (Nonstructural protein 5A [6]): 0.003 nM; EC50 (Nonstructural protein 5A [7]): 0.0007 nM; EC50 (Nonstructural protein 5A [8]): 0.002 nM; EC50 (Nonstructural protein 5A [9]): 0.001 nM; EC50 (Nonstructural protein 5A [10]): 0.0007 nM |
| CC[C@H](C)[C@H](NC(=O)[C@H](CCCNC(=N)N)NC(=O)CNC(=O)[C@H](CC(C)C)NC(=O)[C@H](Cc1ccccc1)NC(=O)[C@H](CCCCN)NC(=O)[C@H](CO)NC(=O)[C@H](Cc1ccccc1)NC(=O)[C@H](Cc1c[nH]c2ccccc12)NC(=O)[C@H](CCC(N)=O)NC(=O)[C@@H]1C[C@H](SC)CN1C(=O)[C@@H](NC(=O)[C@@H](N)Cc1ccccc1)C(C)C)C(=O)N[C@@H](CC(C)C)C(N)=O (H-FV[X1]QWFSKFLGRIL-NH2) | – | – | – | – | – | 6.25 (≈ 11.1 µg/mL) | 25 (≈ 44.6 µg/mL) | 3.12 (≈ 5.56 µg/mL) | 12.5 (≈ 22.3 µg/mL) | 3.12 (≈ 5.56 µg/mL) | – |
| H-FVPQWFSKFLGRIL-NH2 | – | – | – | – | – | 12.5 | 25 | 3.12 | 12.5 | 3.12 | – |
